Experiments:
NnOMT6N323A = test: In vitro enzymatic activity test of NnOMT6N323A (O-methylation of benzylisoquinoline substrates, UPLC-QTOF-MS/MS); format: biochemical, Nelumbo nucifera; conditions: for catalytic (O-methylation) activity of NnOMT6N323A on substrate, in words / conversion rate (O-methylation of substrate by NnOMT6N323A): pH 8.0, 37° C., 12 h, 100 μM substrate, 200 μM SAM, 50 μg purified protein
Experimental: (§1) An in vitro enzymatic activity reaction was conducted at a pH value of 8.0 and 37° C. for 12 h in a 100 μL system containing 50 mM of a potassium phosphate buffer, 100 μM of a substrate, 200 μM of a SAM donor, and 50 μg of the purified protein. 100 μL of methanol was added to terminate the above reaction, the protein was centrifuged at 12,000×g for 30 min in a centrifuge, and a resulting supernatant was passed through a 0.22 μm microporous membrane and injected into UPLC-QTOF-MS/MS for detection. A sample prepared in a same way with boiled purified protein was served as a negative control.
The NnOMT6N323A was studied for substrate promiscuity with 15 benzylisoquinoline compounds (norcoclaurine (1), coclaurine (2), N-methylcoclaurine (3), norarmepavine (4), armepavine (5), lotusine (6), asimilobine (7), N-methlyasimilobine (8), lirinidine (9), liensinine (10), isoliensinine (11), neferine (12), scoulerine (13), tetrahydrocolumbamine (14), and jatrorrhizine (15)).
The chromatographic conditions were as follows: a chromatographic column was an ACQUITY UPLC CSH C18 column (2.1 mm×50 mm, 1.7 μm). A mobile phase A was 0.1% formic acid water, and a mobile phase B was acetonitrile; gradient elution was conducted, including: 0-0.5 min, 2% B; 0.5-1 min, 2%-5% B; 1-5 min, 5%-9% B; […], 9%-10% B; […], 10%-15% B; 16-20 min, 15%-45% B; 20-22 min, 45% B-100% B. A sample injection volume was 2 μL, a column temperature was 35° C., and a flow rate was 0.3 mL/min.
The mass spectrometry conditions were as follows: an ion source was a Dusal ESI source; the substrate was detected in a positive ion (PI) mode with a scan range of m/z 100-1000. […] MS/MS analysis was conducted with a collision energy of 30 eV and a collision energy voltage of 20 V.

[1] = tested on: wild-type O-methyltransferase; test: In vitro enzymatic activity of wild-type O-methyltransferase (comparison with mutant); format: biochemical, Nelumbo nucifera; conditions: same method as Example 1
Experimental: as §1
A specific experimental method was the same as that in Example 1.

Compound	catalytic (O-methylation) activity of NnOMT6N323A on substrate, in words (NnOMT6N323A)	conversion rate (O-methylation of substrate by NnOMT6N323A) (NnOMT6N323A)	catalytic activity of wild-type O-methyltransferase on substrate, in words [1]	enhancement of catalytic activity of mutant NnOMT6N323A compared with wild-type O-methyltransferase (NnOMT6N323A; mutant versus wild-type, FIG. 4)
N-methlyasimilobine [Compound 8]	could catalyze the O-methylation	55.4%	–	–
COc1cc2c(cc1OC)[C@@H]1Cc3ccc(OC)c(O)c3CN1CC2 [Compound 13a, tetrahydropalmatrubine]	further catalyzed	–	–	–
asimilobine [Compound 7]	could catalyze the O-methylation	60.8%	–	–
COc1cc2c(cc1O)[C@@H]1Cc3ccc(OC)c(O)c3CN1CC2 [Compound 13, scoulerine]	could catalyze the O-methylation	–	–	–
lirinidine [Compound 9]	no catalytic activity	–	–	–
COc1cc2c(cc1O)[C@@H](Cc1ccc(O)cc1)N(C)CC2 [Compound 3, N-methylcoclaurine]	could catalyze the O-methylation	47.6%	–	–
COc1cc2c(cc1O)[C@@H]1Cc3ccc(OC)c(OC)c3CN1CC2 [Compound 14, tetrahydrocolumbamine]	could catalyze the O-methylation	about 42.3%	no catalytic activity	–
COc1cc2c(cc1O)CC[n+]1cc3c(OC)c(OC)ccc3cc1-2 [Compound 15, jatrorrhizine]	no activity	–	–	–
Oc1ccc(CC2NCCc3cc(O)c(O)cc32)cc1 (stereo not drawn) [Compound 1, norcoclaurine]	could catalyze the O-methylation	63.7%	–	–
COc1cc2c(cc1O)C(Cc1ccc(O)cc1)NCC2 (stereo not drawn) [Compound 2, coclaurine]	could catalyze the O-methylation	34.8%	–	about two times

— patent publication US12091696B2, “O-methyltransferase protein with highly specific catalytic function for multiple bias parent nuclei and encoding gene and use thereof” (INSTITUTE OF CHINESE MATERIA MEDICA CHINA ACADEMY OF …, priority 2023, dated 2024)
